Measurements published in patent US20260158102A1, “CYCLIC PEPTIDE DERIVATIVE COMPOSITION FOR TREATING OR PREVENTING NEUROPATHIC PAIN AND/OR INFLAMMATORY PAIN” (DKS Co. Ltd., priority 2022, published 2026).

Assays:
[1] = system: STZ-induced diabetic rats; assay: von Frey test in rat STZ-induced diabetes model; assay type: in vivo; conditions: for 50% withdrawal threshold by von Frey test: mean ± SE, n=10
Method: The activity of the compound of the present disclosure was evaluated according to the following procedure.
(§1) Compound 9 (50 mg/mL) was diluted with water for injection to obtain a 1 mg/mL administration specimen. For the specimens to be administered at 0.1 mg/mL and 0.01 mg/mL, the specimen to be administered at 1 mg/mL was diluted stepwise with water for injection. Each administration specimen was divided into PP disposable tubes every day and stored in a storehouse (freezer: MDF-MU339H-PJ, PHC Corporation) under the condition of freezing (−30° C. to −20° C., measured value: −26.4 to −24.5° C.). Preparation was performed on the day before the start of administration.
(§2) Water for injection was added to and dissolved in Pregabalin taken out from the capsule to obtain 2 mg/mL. It was prepared before use.
(§3) • Animal species: rat (SPF) • Strain: Crl: CD (SD) • Date of animal acquisition, gender, age in weeks, number of animals acquired, and weight range after 1 day of acquisition • First and second courses: Apr. 6, 2022, male, 7 weeks old, 35 animals, 217 to 237 g • Third and fourth courses: Apr. 13, 2022, male, 7 weeks old, 35 animals, 216 to 235 g • Source: […].
Among the animals having a 50% withdrawal threshold of 8 g or more in the von Frey test measured during the preliminary breeding period, two animals from young animals with animal numbers were assigned to non-diabetes-induced animals, and the remaining animals were assigned to diabetes-induced animals.
Among the diabetes-induced animals, animals having a blood glucose level of 300 mg/dL or less were excluded from the grouping subjects, and were grouped using a computer program (IBUKI, Nihon Bioresearch Center, Inc.) so that the body weight and the average blood glucose level of each group were approximately equal. That is, the animals for the first and second courses and the third and fourth courses were grouped into one non-diabetes animal for Group 1, and 5 […] animals for Groups 2 to 6. Note that the grouping was performed so that there were 4 examples in Group 1 and 10 examples in each of Groups 2 to 6.
• Administration method: Using a syringe (Terumo Corporation) equipped with a 25 G winged injection needle (Terumo Corporation), tail vein administration was performed. Note that a 0.75 mmol/L CAB solution was administered to a non-diabetes-induced control group.
(§4) • Dose volume: calculated at 2 mL/kg based on the body weight on the day of administration. • Number of times of administration: once • Day of administration: 7 days before the day of starting administration of the test substance.
• Administration method: Using a syringe (Terumo Corporation) equipped with a 25 G winged injection needle (Terumo Corporation), tail vein administration was performed. Note that physiological saline was administered to the non-diabetes control group and the diabetes control group.
(§5) • Dose volume: calculated at 1 mL/kg based on the body weight on the day of administration. • Number of times of administration: 9 times • Interval of administration: once every 3 days (evaluation was performed on the day after administration) • Day of starting administration: day 8 of STZ administration (day of STZ administration is counted as day 1).
• Administration method: Using a polypropylene disposable syringe (Terumo Corporation) equipped with a metal oral zonde for a rat (Fuchigami kikai Ltd.), forced oral administration was performed.
• Dose volume: calculated at 10 mL/kg based on the body weight on the day of administration. • Number of times of administration: Administration was performed once on the day of evaluation of neuropathic pain, twice in total, and on the other days of administration, a vehicle for a control substance (water for injection) was orally administered. […]

[2] = Body weight measurement in rat STZ-induced diabetes model; assay type: in vivo; conditions: mean ± SE, in g (unit assumed)
Method: as §1, §2, §3, §4, §5
• Dose volume: calculated at 10 mL/kg based on the body weight on the day of administration. • Number of times of administration: Administration was performed once on the day of evaluation of neuropathic pain, twice in total, and on the other days of administration, a vehicle for a control substance (water for injection) was orally administered.
• Measurement was performed every day after the day of STZ administration.
The mean and standard error of each group were calculated for the 50% withdrawal threshold, body weight, and blood glucose level.
The body weight was an integer.
No significant difference test of body weight and blood glucose levels was performed.

CC[C@@]1(C)Oc2cc(ccc2O)C[C@H](NC)C(=O)N[C@@H](C(C)C)C(=O)N[C@@H]1C(=O)N[C@@H](CC(=O)O)C(=O)O [Compound 9]
50% withdrawal threshold by von Frey test ([1]; 0.01 mg/kg iv group, Pre: before STZ administration): 14.6 ± 0.4 g
change in the 50% withdrawal threshold (von Frey test) ([1]; 0.01 mg/kg iv group, as compared with the non-diabetes control group (so in the source)): no significant change
50% withdrawal threshold by von Frey test ([1]; 0.01 mg/kg iv once every 3 days from day 8, day 14 of STZ administration): 5.7 ± 0.5 g
50% withdrawal threshold by von Frey test ([1]; 0.01 mg/kg iv once every 3 days from day 8, day 28 of STZ administration): 3.8 ± 0.2 g
50% withdrawal threshold by von Frey test ([1]; 0.1 mg/kg iv group, Pre: before STZ administration): 13.1 ± 0.8 g
change in the 50% withdrawal threshold (von Frey test) ([1]; 0.1 mg/kg iv group, as compared with the non-diabetes control group (so in the source)): no significant change
50% withdrawal threshold by von Frey test ([1]; 0.1 mg/kg iv once every 3 days from day 8, day 14 of STZ administration): 5.7 ± 0.5 g
50% withdrawal threshold by von Frey test ([1]; 0.1 mg/kg iv once every 3 days from day 8, day 28 of STZ administration): 4.8 ± 0.4 g
50% withdrawal threshold by von Frey test ([1]; 1 mg/kg iv group, Pre: before STZ administration): 13.5 ± 0.7 g
change in the 50% withdrawal threshold (von Frey test) ([1]; 1 mg/kg iv group, day 28 after STZ administration, as compared with the diabetes control group): significant increase
50% withdrawal threshold by von Frey test ([1]; 1 mg/kg iv once every 3 days from day 8, day 14 of STZ administration): 5.8 ± 0.5 g
50% withdrawal threshold by von Frey test ([1]; 1 mg/kg iv once every 3 days from day 8, day 28 of STZ administration): 6.7 ± 0.7 † g
effect on diabetic peripheral neuropathic pain ([1]; STZ-induced diabetic rats, conclusion of the discussion): suppressing effect
Body weight ([2]; 0.01 mg/kg iv, day 1 of STZ administration): 295 ± 5
Body weight ([2]; 0.01 mg/kg iv, day 2 of STZ administration): 281 ± 4
Body weight ([2]; 0.01 mg/kg iv, day 3 of STZ administration): 277 ± 4
Body weight ([2]; 0.01 mg/kg iv, day 4 of STZ administration): 280 ± 5
Body weight ([2]; 0.01 mg/kg iv, day 5 of STZ administration): 282 ± 5
Body weight ([2]; 0.01 mg/kg iv, day 6 of STZ administration): 287 ± 5
Body weight ([2]; 0.01 mg/kg iv, day 7 of STZ administration): 291 ± 5
Body weight ([2]; 0.01 mg/kg iv, day 8 of STZ administration): 290 ± 6
Body weight ([2]; 0.01 mg/kg iv, day 9 of STZ administration): 292 ± 5
Body weight ([2]; 0.01 mg/kg iv, day 10 of STZ administration): 297 ± 6
Body weight ([2]; 0.01 mg/kg iv, day 11 of STZ administration): 298 ± 6
Body weight ([2]; 0.01 mg/kg iv, day 12 of STZ administration): 302 ± 7
Body weight ([2]; 0.01 mg/kg iv, day 13 of STZ administration): 304 ± 6
Body weight ([2]; 0.01 mg/kg iv, day 14 of STZ administration): 306 ± 7
Body weight ([2]; 0.01 mg/kg iv, day 15 of STZ administration): 306 ± 8
Body weight ([2]; 0.01 mg/kg iv, day 16 of STZ administration): 307 ± 8
Body weight ([2]; 0.01 mg/kg iv, day 17 of STZ administration): 309 ± 8
Body weight ([2]; 0.01 mg/kg iv, day 18 of STZ administration): 311 ± 8
Body weight ([2]; 0.01 mg/kg iv, day 19 of STZ administration): 309 ± 8
Body weight ([2]; 0.01 mg/kg iv, day 20 of STZ administration): 312 ± 8
Body weight ([2]; 0.01 mg/kg iv, day 21 of STZ administration): 312 ± 8
Body weight ([2]; 0.01 mg/kg iv, day 22 of STZ administration): 311 ± 9
Body weight ([2]; 0.01 mg/kg iv, day 23 of STZ administration): 312 ± 9
Body weight ([2]; 0.01 mg/kg iv, day 24 of STZ administration): 310 ± 9
Body weight ([2]; 0.01 mg/kg iv, day 25 of STZ administration): 312 ± 10
Body weight ([2]; 0.01 mg/kg iv, day 26 of STZ administration): 315 ± 10
Body weight ([2]; 0.01 mg/kg iv, day 27 of STZ administration): 308 ± 10
Body weight ([2]; 0.01 mg/kg iv, day 28 of STZ administration): 312 ± 10
Body weight ([2]; 0.01 mg/kg iv, day 29 of STZ administration): 311 ± 11
Body weight ([2]; 0.01 mg/kg iv, day 30 of STZ administration): 313 ± 11
Body weight ([2]; 0.01 mg/kg iv, day 31 of STZ administration): 309 ± 11
Body weight ([2]; 0.01 mg/kg iv, day 32 of STZ administration): 310 ± 12
Body weight ([2]; 0.01 mg/kg iv, day 33 of STZ administration): 308 ± 12
Body weight ([2]; 0.01 mg/kg iv, day 34 of STZ administration): 313 ± 12
Body weight ([2]; 0.1 mg/kg iv, day 1 of STZ administration): 293 ± 4
Body weight ([2]; 0.1 mg/kg iv, day 2 of STZ administration): 279 ± 5
Body weight ([2]; 0.1 mg/kg iv, day 3 of STZ administration): 275 ± 5
Body weight ([2]; 0.1 mg/kg iv, day 4 of STZ administration): 277 ± 6
Body weight ([2]; 0.1 mg/kg iv, day 5 of STZ administration): 280 ± 5
Body weight ([2]; 0.1 mg/kg iv, day 6 of STZ administration): 285 ± 5
Body weight ([2]; 0.1 mg/kg iv, day 7 of STZ administration): 289 ± 5
Body weight ([2]; 0.1 mg/kg iv, day 8 of STZ administration): 287 ± 5
Body weight ([2]; 0.1 mg/kg iv, day 9 of STZ administration): 292 ± 5
